Molecular target: SaPgsA (Staphylococcus aureus, UniProt P63756)
Assay: […]-G3P incorporation into chloroform-soluble PGP, scintillation counting
Format: biochemical
Conditions: 1.6 mM [14C]-G3P, 100 mM MgCl2, 20 mM Triton X-100, 100 mM Tris-HCl pH 8.0, 27 C, 50 nM enzyme; detergent micelle (bulk concentration)

- Km: 400 µM
Substance: CDP-DAG
